Measured values reported in patent US20190054038A1, “NITRIC OXIDE GENERATING FORMULATIONS AND KITS” (THE REGENTS OF THE UNIVERSITY OF MICHIGAN, priority 2016, published 2019).

Assays:
[1] = NO release kinetics of solutions by chemiluminescence (nitric oxide analyzer); assay type: physicochemical
Experimental: The NO release profile of the two solutions was measured via chemiluminescence detection at 37° C., and the results are shown in FIG. 3. As depicted, both solutions continuously generated NO for more than 7 hours, and the solution containing the higher concentration of GSNO generated higher levels of NO.
As depicted, the inclusion of ascorbate provided an enhanced NO release profile, with all of the NO release within a 2-3 hour window.
The NO release rate of some of the solution formulations was measured by chemiluminescent nitric oxide analyzer (NOA) at room temperature and at 37° C. in an amber NOA cell, while purging with 50 mL/min nitrogen through a glass pipette. The solution formulations were freshly prepared (initial data) (i.e., the dry powder nasal formulation was dissolved in 10 mL of saline solution (NaCl and NaHCO3 in water) immediately before measurements), or were prepared from stored dry power aliquots that were freshly dissolved in 10 mL of saline solution (NaCl and NaHCO3 in water) immediately before measurements. The NO release rate was tested for one or more of the following time periods: 0 (freshly prepared), 1 month, 2 months, 4 months, and 6 months.
The NOA was a Sievers NOA. Studying the release kinetics included analyzing the overall shape of the transient curve, half-life, and total NO released compared to theoretical GSNO content (%). Primarily, the shape of the graph was considered most qualitative, as different machines yield different PPB/mL values due to differing constants. If necessary, the GSNO quantification in each formulation was tested by a copper/cysteine method to release all of the NO from the GSNO very rapidly.

[2] = test system: S. aureus biofilm on CF airway epithelial cells; experiment: Killing of S. aureus biofilm on CF airway epithelial cell cultures (bacterial density by plating lysates); assay type: cell-based; settings: 1.25 mM, 4 hours
Experimental: Progenitor (basal) airway epithelial cells isolated from cystic fibrosis patients were cultured at air/liquid interface to promote mucociliary differentiation resembling airway epithelium in vivo. These cultures will be referred to herein as CF airway epithleial cells.
Apical surface of the CF airway epithelial cells was washed with PBS, infected apically with 10 μl of S. aureus (1×10^5 CFU/well or at 0.01 multiplication of infection), and incubated for 24 hours. […] The basolateral medium was changed, the apical surface was washed with saline once, and then 30 μl of PBS containing various concentrations of GSNO/Asc (i.e., 0 mM, 0.3 mM, 0.625 mM, 1.25 mM, 2.5 mM, and 5 mM) was added to the apical surface and incubated for 4 hours. The apical surface was washed once with 0.2 ml of 0.15% bicarbonate in PBS. […] Cells were lysed in 1% Triton X-100 and serial dilutions of cell lysates were plated to determine the bacterial density (FIG. 17A).
Apical surface of CF airway epithelial cells was washed with PBS, infected apically with 10 μl of S. aureus (2×10^6 CFU/well), and incubated for 24 hours. The basolateral medium was changed, the apical surface was washed with saline once and treated apically with 30 μl of PBS, or saline containing 1.25 mM GSNO/Asc, or saline containing 50 μg of gentamicin, or saline containing a mixture of 1.25 mM GSNO/Asc and 50 μg of gentamicin. […]

[3] = Stability of dry powder formulations by UV/Vis (GSNO absorbance at 334 nm); assay type: physicochemical
Experimental: Some of the formulations also included ethylenediamintetraacetic acid (EDTA) and/or saline salts (NaCl and NaHCO3). The constituents were mixed as dry powders and were stored in 4 mL amber vials either in the freezer (−18° C.), at 4° C., at room temperature (RT, from about 20° C. to about 25° C.), or at 37° C. The stability of some of the dry powder formulations was tested via UV/Vis analysis and/or via the Sievers nitric oxide (NO) analyzer (as previously described). For the UV/Vis analysis, at each time interval (0 (freshly prepared), 1 month, 2 months, 4 months, and 6 months), three samples (3-5 mg each) from the dry powder formulations (at each temperature, resulting in 12 vials per formulation) were put into 4 mL amber vials. The respective formulations were then diluted in 4 mL PBS+0.1 mM EDTA (PB SE) solution and mixed for 30 seconds, and 1 mL of the diluted formulation was injected into 3 mL PBSE in a disposable UV/VIS cuvette. The absorbance spectrum was measured typically between 300-600 nm after measuring the PBSE spectrum as blank. GSNO was quantified by absorbance measured at 334 nm. These values were then compared to a calculated value of the percentage of initial or theoretical GSNO content of each formulation.

## O=C(O)CN(CCN(CC(=O)O)CC(=O)O)CC(=O)O [EDTA, ethylenediaminetetraacetic acid]
[1]; NO release patterns, fresh vs stored several months
  EDTA stability in stored dry powder formulation: stable

## N[C@@H](CCC(=O)N[C@@H](CS)C(=O)NCC(=O)O)C(=O)O [GSH, reduced L-glutathione]
[2]
  change in bacterial density: no significant changes in bacterial density

## N[C@@H](CCC(=O)N[C@@H](CSN=O)C(=O)NCC(=O)O)C(=O)O [GSNO, S-nitrosoglutathione]
[1]; 10 μM and 25 μM GSNO in phosphate buffered saline pH 7.4, 37° C., no additive
  time of continuous NO generation: more than 7 hours
[1]; GSNO 1-100 μM in saline
  amount of NO release versus GSNO concentration: directly related to the GSNO concentration
[1]; GSNO 1-100 μM in saline, without any additive
  time of peak NO release: 5 to 6 h
[3]; dry powder stored at 37° C., after 6 months
  % of initial GSNO remaining: 67%
[3]; stored at −18° C., 4° C., room temperature, 37° C.
  stability of dry powder over six months (UV/VIS): no significant decrease in the stability

## O=C1O[C@H]([C@@H](O)CO)C(O)=C1O [ascorbic acid, L-ascorbic acid, reference compound]
[3]; UV/Vis of GSNO mixed with ascorbic acid, fresh vs stored several months
  ascorbic acid stability in stored dry powder formulation: relatively stable
[2]
  change in bacterial density: no significant changes in bacterial density
